Assay results from patent US20110104289A1, “METHOD AND PHARMACEUTICAL COMPOSITION FOR OBTAINING THE PLASMATIC PROGESTERONE LEVELS REQUIRED FOR DIFFERENT THERAPEUTIC INDICATIONS” (POSI VISIONARY SOLUTIONS LLP, priority 2008, published 2011).

Assay: Progesterone plasma levels after intramuscular-type injection of injectable aqueous suspension of progesterone particles
Assay type: in vivo, post-menopausal women
Conditions: female, human, humans, across the dosing schemes (100-300 mg, single or repeated injection), read-out: maximum plasma concentrations (Cmax)
Experimental: 12 post-menopausal women were administered with a 100 mg single injection of progesterone spherical microparticles, in the form of an injectable aqueous suspension. Obtained plasma levels are illustrated in FIG. 1, wherein progesterone plasma concentrations are observed to be maintained up to 7 days in suitable levels for several therapies requiring said progesterone concentrations. 12 post-menopausal women were administered with a single 200 mg injection of progesterone spherical microparticles in the form of an injectable aqueous suspension. Obtained plasma levels are illustrated in FIG. 2, wherein progesterone plasma concentrations are observed to be maintained up to 7 days in suitable levels for several therapies requiring said progesterone concentrations and described in page 2. Four 200 mg repeated injections of progesterone spherical microparticles were administered in the form of an injectable aqueous suspension to 15 post-menopausal women. Obtained plasma levels are illustrated in FIG. 3, wherein progesterone plasma concentrations are observed to be maintained up to 7 days in suitable levels for several therapies requiring said progesterone concentrations and described in page 2. Four 300 mg repeated injections of progesterone spherical microparticles were administered in the form of an injectable aqueous suspension to 13 post-menopausal women. […]

- Cmax: 12 to 42 ng/mL
SMILES: CC(=O)[C@H]1CC[C@H]2[C@@H]3CCC4=CC(=O)CC[C@]4(C)[C@H]3CC[C@]12C [progesterone]
